This passage reports IC50 results from patent US10077288B2, “Hydroxystatin derivatives for the treatment of arthrosis” (Merck Patent GmbH, priority 2012, dated 2018).

SMILES strings stand for the structures. *1 amine or outer side, *2 acyl side, *3 side chain or, on linkers, in order; H or OH if unused. Where a SMILES comes first, the peptide text is derived from it. [ ]: non-standard residue; d: D form. The star is where a group is joined. Ahppa(3S,4S) = O=C(C[C@H](O)[C@H](Cc1ccccc1)N[*:1])[*:2]; PhAc = O=C(Cc1ccccc1)*

This assay deals with T1, cathepsin D isolated from the human liver (Homo sapiens, UniProt P07339).
T1 construct: cathepsin D isolated from the human liver (Sigma-Aldrich); purchased Sigma-Aldrich; host or cells: human liver (tissue-derived, not recombinant)
T1 sequence (P07339 65-161 limits assumed): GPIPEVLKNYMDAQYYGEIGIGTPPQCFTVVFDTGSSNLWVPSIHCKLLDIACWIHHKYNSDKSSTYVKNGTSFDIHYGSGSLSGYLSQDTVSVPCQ
T1 sequence (P07339 169-412 limits assumed): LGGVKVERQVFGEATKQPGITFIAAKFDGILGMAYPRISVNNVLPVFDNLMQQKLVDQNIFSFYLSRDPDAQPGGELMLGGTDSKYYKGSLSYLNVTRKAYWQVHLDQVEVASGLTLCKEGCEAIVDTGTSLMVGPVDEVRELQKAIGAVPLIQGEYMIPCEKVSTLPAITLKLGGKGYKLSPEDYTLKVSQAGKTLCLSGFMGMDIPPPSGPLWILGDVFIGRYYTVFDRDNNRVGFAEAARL
Description: In-vitro fluorescence assay for identification of cathepsin D inhibitors. The format is biochemical. The note with it: human liver cathepsin D 1.4 nM, pH 5.5; read-out: CatD assay IC50-(M). As for the experimental part: EXAMPLE 4: IN-VITRO FLUORESCENCE ASSAY FOR IDENTIFICATION OF CATHEPSIN D INHIBITORS
In order to identify modulators of cathepsin D activity, a continuous enzymatic test was carried out with a synthetic peptide which carries a fluorescent group (MCA=(7-methoxycoumarin-4-yl)acetyl) which is quenched by energy transfer from a Dpn (2,4 dinitrophenyl) group on the same molecule, in Greiner 384-well nb microtitre plates. Cleavage of the peptidic substrate by cathepsin D causes an increase in the fluorescence intensity. In order to determine the efficacy of substances, the time-dependent increase in the fluorescence intensity in the presence of the substance was compared with the time-dependent increase in fluorescence in the absence of substances. The reference substance used was pepstatin A (Sigma-Aldrich). The substrate used was MCA-GKPILFFRLK(Dnp)d-R—NH2 (Enzo Life Sciences, Lörrach). The enzyme employed was cathepsin D isolated from the human liver (Sigma-Aldrich) in a final concentration of 1.4 nM. The test was carried out in 100 mM sodium acetate buffer, 1.25% (v/v) of DMSO, 0.25% (w/v) of Chaps, pH 5.5. 2 μl of each substance solution with serially diluted substance concentration were added to in each case 4 μl of cathepsin D solution and incubated at room temperature for 10 min. The reaction was started by addition of 2 μl of substrate solution (final concentration 5 μM). After carrying out a starting-point fluorescence measurement (excitation wavelength 340 nm/emission wavelength 450 nm) using an Envision multilabel reader (Perkin Elmer), the reaction was incubated at room temperature for 60 min. The amount of peptide fragment cleaved off during the reaction time was subsequently measured by determination of the increase in the fluorescence intensity at 450 nm (excitation wavelength 340 nm).
For the compound `CCC(CC)NC(=O)[C@@H](NC(=O)C[C@H](O)[C@H](Cc1ccccc1)NC(=O)[C@@H](NC(=O)[C@H](CC(C)C)NC(=O)Cc1ccccc1)C(C)C)[C@@H](C)CC` [Compound 43, N-[(1S,2S)-1-(1-ethylpropylcarbamoyl)-2-methylbutyl]-(2S,5S)-3-hydroxy-4-[(S)-3-methyl-2-((S)-4-methyl-2-phenylacetylaminopentanoylamino)-1-oxobutylamino]-5-phenylpentanamide], the IC50 turned out to be 3.5e-09 M.

Turning to `CC[C@H](C)[C@H](NC(=O)C[C@H](O)[C@H](Cc1ccccc1)NC(=O)[C@@H](NC(=O)Cc1cccc(OCCN)c1)[C@@H](C)CC)C(=O)N[C@H](C(=O)O)C(C)C` [Compound 41, (S)-2-{(2S,3S)-2-[(3S,4S)-4-((S)-2-{2-[3-(2-aminoethoxy)phenyl]-acetylamino}-3-methyl-1-(S)-oxopentylamino)-3-hydroxy-5-phenylpentanoylamino]-3-methylpentanoylamino}-3-methylbutyric acid], the IC50 was determined as 4.8e-07 M. Under `CC[C@H](C)[C@H](NC(=O)C[C@H](O)[C@H](Cc1ccccc1)NC(=O)[C@@H](NC(=O)Cc1cccc(Oc2ccccc2)c1)C(C)C)C(=O)N[C@H](C(=O)OCc1ccccc1)C(C)C` [Compound 19, benzly (S)-2-[(2S,3S)-2-((3S,4S)-3-hydroxy-4-{(S)-3-methyl-2-[2-(3-phenoxyphenyl)acetylamino]butyrylamino}-5-phenylpentanoylamino)-3-methylpentanoylamino]-3-methylbutyrate] stands 4e-08 M. For `CCC[C@H](NC(=O)C[C@H](O)[C@H](Cc1ccccc1)NC(=O)[C@@H](NC(=O)[C@H](CC(C)C)NC(=O)CC(C)C)C(C)C)C(=O)NC(CC)CC` [Compound 48, N—[(S)-1-(1-ethylpropylcarbamoyl)butyl]-(3S,4S)-3-hydroxy-4-{(S)-3-methyl-2-[(S)-4-methyl-2-(3-methylbutyrylamino)pentanoylamino]-butyrylamino}-5-phenylpentanamide] the value was 2.6e-10 M.

In the case of `CC[C@H](C)[C@H](NC(=O)C[C@H](O)[C@H](Cc1ccccc1)NC(=O)[C@@H](NC(=O)Cc1ccc(OC)c(OC)c1)C(C)C)C(=O)N[C@H](C(=O)OCc1ccccc1)C(C)C` [Compound 10, benzly (S)-2-[(2S,3S)-2-((3S,4S)-4-{(S)-2-[2-(3,4-dimethoxyphenyl)-acetylamino]-3-methylbutyrylamino}-3-hydroxy-5-phenylpentanoylamino)-3-methylpentanoylamino]-3-methylbutyrate], the IC50 is 2.9e-08 M. Under `CCOc1cccc(CC(=O)N[C@H](C(=O)N[C@@H](Cc2ccccc2)[C@@H](O)CC(=O)N[C@H](C(=O)N[C@H](C(=O)OCc2ccccc2)C(C)C)[C@@H](C)CC)C(C)C)c1` [Compound 12, benzly (S)-2-[(2S,3S)-2-((3S,4S)-4-{(S)-2-[2-(3-ethoxyphenyl)-acetylamino]-3-methylbutyrylamino}-3-hydroxy-5-phenylpentanoylamino)-3-methylpentanoylamino]-3-methylbutyrate] stands 2.5e-08 M; under `CCOc1cccc(CC(=O)N[C@H](C(=O)N[C@@H](Cc2ccccc2)[C@@H](O)CC(=O)N[C@H](C(=O)N[C@H](C(=O)O)C(C)C)[C@@H](C)CC)C(C)C)c1` [Compound 17, (S)-2-[(2S,3S)-2-((3S,4S)-4-{(S)-2-[2-(3-ethoxyphenyl)acetylamino]-3-methylbutyrylamino}-3-hydroxy-5-phenylpentanoylamino)-3-methylpentanoylamino]-3-methylbutyric acid], 1.55e-08 M. For `CC[C@H](C)[C@H](NC(=O)C[C@H](O)[C@H](Cc1ccccc1)NC(=O)[C@@H](NC(=O)COc1ccc2ccccc2c1)C(C)C)C(=O)N[C@H](C(=O)OCc1ccccc1)C(C)C` [Compound 7] the value was 3.5e-07 M. Under `CC[C@H](C)[C@H](NC(=O)C[C@H](O)[C@H](Cc1ccccc1)NC(=O)[C@@H](NC(=O)Cc1ccc(OC)cc1)C(C)C)C(=O)N[C@H](C(=O)OCc1ccccc1)C(C)C` [Compound 11, benzly (S)-2-[(2S,3S)-2-((3S,4S)-3-hydroxy-4-{(S)-2-[2-(4-methoxy-phenyl)acetylamino]-3-methylbutyrylamino}-5-phenylpentanoylamino)-3-methylpentanoylamino]-3-methylbutyrate] stands 9e-08 M.

For `CC[C@H](C)[C@H](NC(=O)C[C@H](O)[C@H](Cc1ccccc1)NC(=O)[C@@H](NC(=O)[C@@H](O)c1ccccc1)C(C)C)C(=O)N[C@H](C(=O)OCc1ccccc1)C(C)C` [Compound 35, benzly (S)-2-((2S,3S)-2-{(3S,4S)-3-hydroxy-4-[(S)-2-((S)-2-hydroxy-2-phenylacetylamino)-3-methylbutyrylamino]-5-phenylpentanoylamino}-3-methylpentanoylamino)-3-methylbutyrate], the half-inhibitory concentration (IC50) came to 5.8e-07 M.

Consider `CCOc1cccc(CC(=O)N[C@H](C(=O)N[C@@H](Cc2ccccc2)[C@@H](O)CC(=O)N[C@H](C(=O)N[C@H](C(=O)OCc2ccccc2)C(C)C)[C@@H](C)CC)[C@@H](C)CC)c1` [Compound 34, benzly (S)-2-[(2S,3S)-2-((3S,4S)-4-{(S)-2-[2-(3-ethoxyphenyl)-acetylamino]-3-methyl-1-(S)-oxopentylamino}-3-hydroxy-5-phenylpentanoylamino)-3-methylpentanoylamino]-3-methylbutyrate], for which the IC50 stood at 2.7e-07 M. For `CC[C@H](C)[C@H](NC(=O)C[C@H](O)[C@H](Cc1ccccc1)NC(=O)[C@@H](NC(=O)Cc1cccc(OCCNC(=O)OC(C)(C)C)c1)[C@@H](C)CC)C(=O)N[C@H](C(=O)O)C(C)C` [Compound 39, (S)-2-{(2S,3S)-2-[(3S,4S)-4-((S)-2-{2-[3-(2-tert-butoxycarbonyl-aminoethoxy)phenyl]acetylamino}-3-methyl-1-(S)-oxopentylamino)-3-hydroxy-5-phenylpentanoylamino]-3-methylpentanoylamino}-3-methylbutyric acid] the value was 3.9e-08 M. Under `CC[C@H](C)[C@H](NC(=O)C[C@H](O)[C@H](Cc1ccccc1)NC(=O)[C@@H](NC(=O)[C@H](CC(C)C)NC(=O)Cc1ccccc1)C(C)C)C(=O)N[C@H](C(=O)O)C(C)C` [Compound 45, (S)-2-((2S,3S)-2-{(3S,4S)-3-hydroxy-4-[(S)-3-methyl-2-((S)-4-methyl-2-phenylacetylaminopentanoylamino)butyrylamino]-5-phenylpentanoylamino}-3-methylpentanoylamino)-3-methylbutyric acid] (PhAc-LV[Ahppa(3S,4S)]IV-OH) stands 3.5e-10 M; under `CC[C@H](C)[C@H](NC(=O)C[C@H](O)[C@H](Cc1ccccc1)NC(=O)[C@@H](NC(=O)C(C)(C)Oc1ccc2ccccc2c1)C(C)C)C(=O)N[C@H](C(=O)O)C(C)C` [Compound 6, (S)-2-[(2S,3S)-2-((3S,4S)-3-hydroxy-4-{(S)-3-methyl-2-[2-methyl-2-(naphthalen-2-yloxy)propionylamino]butyrylamino}-5-phenylpentanoylamino)-3-methylpentanoylamino]-3-methylbutyric acid], 2.3e-07 M. For `CCC(CC)NC(=O)[C@@H](NC(=O)C[C@H](O)[C@H](Cc1ccccc1)NC(=O)[C@@H](NC(=O)[C@H](CC(C)C)NC(=O)CC(C)C)C(C)C)[C@@H](C)CC` [Compound 42, N-[(1S,2S)-1-(1-ethylpropylcarbamoyl)-2-methylbutyl]-(2S,5S)-3-hydroxy-4-{(S)-3-methyl-2-[(S)-4-methyl-2-(3-methylbutyrylamino)-pentanoylamino]butyrylamino}-5-phenylpentanamide] the value was 1.3e-09 M; for `CC[C@H](C)[C@H](NC(=O)C[C@H](O)[C@H](Cc1ccccc1)NC(=O)[C@@H](NC(=O)c1cccc(OC(C)(C)C)c1)C(C)C)C(=O)N[C@H](C(=O)O)C(C)C` [Compound 26, (S)-2-((2S,3S)-2-{(3S,4S)-4-[(S)-2-(3-tert-butoxybenzoylamino)-3-methylbutyrylamino]-3-hydroxy-5-phenylpentanoylamino}-3-methylpentanoylamino)-3-methylbutyric acid], 1.2e-07 M.

Take `CC[C@H](C)[C@H](NC(=O)C[C@H](O)[C@H](Cc1ccccc1)NC(=O)[C@@H](NC(=O)Cc1cc(OC(F)(F)F)ccc1OC)C(C)C)C(=O)N[C@H](C(=O)O)C(C)C` [Compound 24, (S)-2-[(2S,3S)-2-((3S,4S)-3-hydroxy-4-{(S)-2-[2-(2-methoxy-5-trifluoromethoxyphenyl)acetylamino]-3-methylbutyrylamino}-5-phenylpentanoylamino)-3-methylpentanoylamino]-3-methylbutyric acid]: the IC50 was 1.1e-08 M.

By IC50 is commonly meant the concentration at which inhibition is half-maximal.
